Consider one molecule from EP2065031A1, “Skin treatment composition” (Evonik Goldschmidt GmbH, priority 2007, dated 2009).

The test system of data set [1] is human skin fibroblast cells. The note with it: incubation of human skin fibroblast cells with 6.25 mg/mL arjunolic acid; cited from earlier work.
The test system of data set [2] is skin. The note with it: moisturizer containing arjunolic acid, volunteers; cited from earlier work.
The subject of data set [3] is skin. Kind of data set: skin hydration (corneometer) in volunteers. The note with it: formulation with 0.1625% arjunolic acid, twice daily, 4 weeks, left inner forearm, figure 2. In kind it is in vivo, human. The source says: (§1) For the study 30 volunteers were recruited. 15 volunteers got the test formulation with 0.1625% arjunolic acid, 15 got the formulation without active ingredient (carrier). They applied the test formulation twice daily over a period of 4 weeks on the left inner forearm. A Tewameter (TM 300, Courage & Khazaka, Cologne, D) was used to determine the transepidermal water loss. A corneometer (CM825, Courage & Khazaka, Cologne, D) was used to determine the skin hydration. The measurements were performed before the application started and after 4 weeks. Before the measurement started the panelists had to climatize in a climatic room at 21-22°C and 50% relative humidity for at least 15 min.

The subject of data set [4] is TSP1. The data set is described as follows: TSP1 expression in reconstructed human epidermis (RHE) skin models, real time RT-PCR. Type of data set: cell-based. Conditions: 50 µl aqueous formulation containing 0.325% arjunolic acid, 48 hours, versus formulation without arjunolic acid, read-out: increased expression of TSP1. As for the experimental part: Since thrombospondin 1 (TSP1) has been described by Murphy-Ullrich et al. 2000, Cytokine & Growth Factor Reviews; 11: 59-69 as one of the most important endogenous activators of TGF-β1 we investigated the effect of arjunolic acid on TSP1 expression in reconstructed human epidermis (RHE) skin models.
For this purpose RHE skin models (SkinEthic laboratories, Nice, France) were incubated with 50 µl of the test formulation (aqueous arjunolic acid formulation containing 0.325% arjunolic acid, 3% Glyceryl Stearate, 3% Ceteareth-20, 1% Stearyl Alcohol, 4% Cetearyl Ethylhexanoate/Isopropylmyristate and 4% Caprylic/Capric Triglyceride) in a humidified atmosphere containing 5 % CO2 for 48 hours. Then cell culture supernatants were removed and skin models were immediately transferred into a 2 ml reaction tube containing 1,5 ml RNAlater RNA stabilisation reagent (#76104, Qiagen, Hilden, Germany) to avoid RNA degradation. Controls received formulation without arjunolic acid only. […] Real time RT-PCR analysis was performed to quantify expression of TSP1. […] Results were analysed with SDS 2.0 software (Applied Biosystems). Relative quantification was performed according to the delta-delta-Ct method with 18s ribosomal RNA (18s rRNA) used as a house keeping gene.

For data set [5], the system named is skin. The data set is described as follows: skin elasticity (Cutometer) in volunteers. The note with it: formulation containing 0.1625% arjunolic acid, twice daily, 8 weeks, left inner forearm. In kind it is in vivo, human. Here is the method:
Method: For this study 30 volunteers were recruited. 15 volunteers got the test formulation with 0.1625% arjunolic acid, 15 got the formulation without active ingredient (carrier). They applied the test formulation twice daily over a period of 8 weeks on the left inner forearm.
The skin elasticity was assessed with a Cutometer MPA 580 (Courage & Khazaka, Cologne, D) which measures the vertical deformation of the skin when sucked into the loop of a measuring probe and reversed into its original condition. From the stretching/release cycles different parameters describing the skin elasticity were calculated. The parameter R1 describes the remaining deformation after the first stretching cycle while R5 is known as netto elasticity (R5 = UR/UE).
For the stretching a vacuum of 450 mbar was kept for 5s, the relaxing time was also 5s. The measurement was carried out after a climatization of the volunteers at room temperature and 50 % relative humidity for at least 15 min. before the treatment started and after 8 weeks of application.

The test system of data set [6] is skin. Kind of data set: skin scaliness (Visioscan camera) in volunteers. Type of data set: in vivo, human. The note with it: 0.25% arjunolic acid in the formulation as printed, versus carrier, twice daily, 4 weeks, left inner forearm, figure 5. As for the experimental part:
For this study 30 volunteers were recruited. […] They applied the test formulation twice daily over a period of 4 weeks on the left inner forearm. The measurement was carried out after an acclimatization of the volunteers at room temperature and 50 % relative humidity before the treatment started and after 4 weeks of application.
For the evaluation of the skin scaliness a special camera (Visioscan VC 98, Courage & Khazaka, Cologne, D) was used. […] The picture taken with this camera is converted into a digital signal with 256 grey levels. Via the grey level distribution the software calculates the skin scaliness.

Data set [7] in a line: solubility of arjunolic acid in water, cosmetic oils and solvents. In kind it is physicochemical. An excerpt:
Skin is subject to deterioration through the passage of time (chronological aging, dermatological disorders, hormonal changes, environmental abuse (wind, air conditioning, central heating, pollution) all of which may be accelerated by exposure of skin to radiation from the sun (photoaging). Chronological aging and photoaging is summarized under the term aging. Consumers are increasingly seeking cosmetic products which treat or delay the visible signs of aging skin such as wrinkles, lines, loss of elasticity, uneven skin tone, dry skin, sagging, hyperpigmentation and age spots. There continues to be a need, however, for alternative effective cosmetic compositions for topical application to skin for treating and delaying skin aging. […] This effect be boosted by combinations with at least one additional active selected from the group of anti-aging, anti-inflammatory, anti-cellulite, moisturization, skin barrier improving, anti-wrinkle, firming, soothing or calming active ingredients. As described above arjunolic acid is poorly soluble in common solvents: It is insoluble in water and poorly soluble in cosmetic oils like mineral oil, isopropyl myristate or other ester oils or cosmetic solvents like propylene glycol or glycerol. The solubility of arjunolic acid in propylene glycol is only 0.6%; in ispropylmyristate, mineral oil and glycerin less than 0.1% arjunolic acid are soluble. This leads to the problem that it is very difficult to keep a sufficient amount of arjunolic acid solubilized in the cosmetic preparation without crystallization.

For data set [8], the system named is skin. The data set is described as follows: transepidermal water loss (Tewameter) in volunteers. In kind it is in vivo, human. The note with it: formulation with 0.1625% arjunolic acid versus carrier, twice daily, 4 weeks, left inner forearm, figure 1.
Text: as §1

On to `CC1(C)CC[C@]2(C(=O)O)CC[C@]3(C)C(=CC[C@@H]4[C@@]5(C)C[C@@H](O)[C@H](O)[C@@](C)(CO)[C@@H]5CC[C@]43C)[C@@H]2C1` [arjunolic acid, 2a,3b,23-trihydroxyolean-12-en-28-oic acid], for which the collagen formation in data set [1] was 30.9 ng/mg. In addition, in data set [2], the anti-wrinkle effects entry is on record as “good anti-wrinkle effects”. Further, in data set [3], the skin hydration result is “increases skin hydration significantly”. For the same molecule, the fold induction at 0.325 % in data set [4] was around 10. Besides, in data set [5] (figure 3), the “R1, the remaining deformation after the first stretching cycle” value is recorded as “improved significantly”. Besides, the “R5, the netto elasticity” value in data set [5] (figure 4) is “improved significantly”. Further, the “reduction of the scaliness” value in data set [6] was “improved further”. Besides, the solubility in glycerin entry in data set [7] (glycerin) was “less than 0.1%”. Also, in data set [7] (ispropylmyristate), the solubility in ispropylmyristate result was “less than 0.1%”. Moreover, the “solubility in mineral oil” value in data set [7] (mineral oil) is “less than 0.1%”. The “solubility in propylene glycol” value in data set [7] (propylene glycol) is recorded as 0.6%. Also, the solubility in water result in data set [7] (water) is on record as “insoluble”. The “transepidermal water loss (TEWL)” value in data set [8] is given as “improves skin barrier”.
